# Measurements: PubChem BioAssay AID463203 (Broad Institute, 2010)
# Calls of active or inactive are those of the source.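 The calls were made as follows: active = more than half of replicate measurements showing over 20% loss of kinase signal relative to plate controls; inconclusive = some but at most half of replicates over 20% loss; inactive = no replicate over 20% signal loss.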
# Target: Glycogen synthase kinase-3 alpha (Homo sapiens) (UniProt P49840)
# Experiment: concentration-response blocking of human GSK3A – biochemical, luminescence, cell-free homogeneous, retest, dose response (AID 463203)
# Settings: GSK-3 alpha enzyme, ADP-Glo luminescence, 60 min
# Chain of Glycogen synthase kinase-3 alpha (Homo sapiens) (P49840 whole entry, looked up): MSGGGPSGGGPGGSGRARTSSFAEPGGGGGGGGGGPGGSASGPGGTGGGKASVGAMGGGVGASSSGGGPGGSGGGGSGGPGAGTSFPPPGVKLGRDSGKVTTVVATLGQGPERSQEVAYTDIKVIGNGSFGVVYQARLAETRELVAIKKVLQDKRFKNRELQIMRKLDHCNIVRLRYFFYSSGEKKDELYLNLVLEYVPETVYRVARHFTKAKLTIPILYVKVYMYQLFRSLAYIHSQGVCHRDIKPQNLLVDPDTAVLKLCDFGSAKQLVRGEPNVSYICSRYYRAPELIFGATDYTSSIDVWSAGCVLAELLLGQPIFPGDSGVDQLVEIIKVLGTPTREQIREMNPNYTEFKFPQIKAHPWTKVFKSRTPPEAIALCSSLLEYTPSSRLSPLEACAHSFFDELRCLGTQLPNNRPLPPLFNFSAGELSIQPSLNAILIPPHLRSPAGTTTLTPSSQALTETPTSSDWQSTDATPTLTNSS
row,SMILES,AC50
1,COc1ccc(N=c2oc3c(OC)cccc3cc2C(=O)NCc2ccco2)c(OC)c1,> 30 µM (inactive)
2,Nc1nonc1-n1nnc(C(=O)N/N=C/c2cccs2)c1CSc1ccccc1,> 30 µM (inactive)
3,CCC(=NCCCn1ccnc1)c1c(O)n(-c2ccccc2)c(=O)[nH]c1=O,27.8 µM
4,COc1cccc(N/C(SC)=C(/C#N)C(N)=O)c1,30 µM
5,O=C1CCCC2=C1C(c1ccc(O)cc1)c1c(ccc3ccccc13)N2 (stereo not drawn),> 30 µM (inactive)
6,CCOC(=O)N1CCc2c(sc3nc(SC(C)C)n(N)c(=O)c23)C1,> 30 µM (inactive)
7,Cc1cccc(N2CCN(C(=O)c3cc4c(=O)[nH]c5ccccc5c4n3C)CC2)c1C,> 30 µM (inactive)
8,O=[N+]([O-])c1cc(S(=O)(=O)N2CCCCC2)ccc1NCCCN1CCOCC1,> 30 µM (inactive)
9,COc1ccc(OCC(=O)Nc2ccc3c(c2)C(=O)NC3=O)cc1,12.2 µM
10,O=C(Cn1c(NCCO)nc2ccccc21)c1ccc([N+](=O)[O-])cc1,> 30 µM (inactive)
11,CCn1c(=O)[nH]c(=O)c2c(N)c(C(=O)c3ccccc3OC)sc21,16.8 µM
12,N#CC1=C2SCN(Cc3ccco3)CN2C(=O)CC1c1ccc(Cl)cc1 (stereo not drawn),> 30 µM (inactive)
13,Cc1cc(/C=N/Nc2ccc([N+](=O)[O-])cn2)c(C)n1-c1cccc(C(=O)O)c1,14.6 µM
14,Cc1cc(=O)[nH]c2c(C)cc(S(=O)(=O)Nc3ccc(O)cc3)cc12,> 30 µM (inactive)
15,Cc1ccc(N(C)C(=O)C2CCCN2S(=O)(=O)c2cccc3nsnc23)cc1 (stereo not drawn),29.8 µM
16,Cc1c(C(=O)NCCc2ccccc2)oc2ccccc12,> 30 µM (inactive)
17,O=[N+]([O-])c1ccc(N/N=C/c2ccc(OCc3cccc4ccccc34)cc2)nc1,> 30 µM (inactive)
18,CCOc1cccc(-c2c(C(=O)N/N=C/c3cccnc3)nnn2-c2nonc2N)c1,4.67 µM
19,CC1(C)Cc2c(sc3nn[nH]c(=O)c23)CO1,> 30 µM (inactive)
20,Cc1ccc(CNc2ccc([N+](=O)[O-])cc2C(N)=O)cc1,> 30 µM (inactive)
21,O=C(CSc1ccccn1)Nc1ccccc1F,> 30 µM (inactive)
22,NC(=O)c1cc([N+](=O)[O-])ccc1NCc1ccc(N)cc1,8.36 µM
23,O=C1NC(=O)/C(=C/c2ccc(-c3cc(C(=O)O)ccc3Cl)o2)S1,13.5 µM
24,O=P(COCCOCP(=O)(c1ccccc1)c1ccccc1)(c1ccccc1)c1ccccc1,> 30 µM (inactive)
25,CC(=O)Nc1cccc(-c2csc(NCc3ccccc3)n2)c1,> 30 µM (inactive)
26,Cc1cc(C(=O)N/N=C/c2cc(N=Nc3ccccc3)ccc2O)n[nH]1,> 30 µM (inactive)

row,SMILES,AC50
1,Cn1c(N=Nc2ccccc2)nc2ccccc21,21.1 µM
2,COc1cccc(C2C3(C#N)C(N)=NC(OC)(OC)C23C#N)c1 (stereo not drawn),> 30 µM (inactive)
3,S=C(Nc1ccc2c(c1)OCCO2)Nc1ccccc1Cl,> 30 µM (inactive)
4,CCOC(=O)C1CCCN(c2c(C(=O)c3ccccc3)cnc3ccccc23)C1 (stereo not drawn),> 30 µM (inactive)
5,COc1ccc(-c2noc(CSc3nc(-c4ccccc4)cc(=O)[nH]3)n2)cc1OC,> 30 µM (inactive)
6,Cc1ccc(CSc2nnc(SCC(=O)N/N=C/c3ccc(C(=O)O)cc3)s2)cc1,> 30 µM (inactive)
7,CCCOc1cccc(-c2nnc(N)s2)c1,> 30 µM (inactive)
8,CC(C)c1ccc(/C=N/NC(=O)c2nnn(-c3nonc3N)c2CN(C)C2CCCCC2)cc1,> 30 µM (inactive)
9,Cc1nc2ncnn2c(C)c1Cc1cccc(F)c1,> 30 µM (inactive)
10,c1cncc(-c2nc(NCC3COc4ccccc4O3)c3ccccc3n2)c1 (stereo not drawn),22.9 µM
11,C/C(=N\NC(=O)c1nnn(-c2nonc2N)c1-c1ccccc1)c1cccnc1,18.3 µM
12,Cn1cnnc1Sc1ccc(CN2CCN(C3CCCC3)C(CCO)C2)o1 (stereo not drawn),> 30 µM (inactive)
13,C[C@H]1CN([C@@H](C)CO)C(=O)c2cccc(NC(=O)c3cnccn3)c2O[C@@H]1CN(C)S(=O)(=O)c1ccc(F)cc1,7.19 µM
14,Cc1ccc(CSCCNC(=O)c2ccccc2)cc1,> 30 µM (inactive)
15,COc1cc2c(cc1OC)C(C)N(C(=O)Cn1ncc3c1-c1cc(C)ccc1OC3)CC2 (stereo not drawn),> 30 µM (inactive)
16,CCOc1cc(/C=N/NC(=O)N/N=C/c2ccc(O)c(OCC)c2)ccc1O,> 30 µM (inactive)
17,O=C1C2C3c4ccccc4C(c4ccccc43)C2C(=O)N1Cc1cccnc1 (stereo not drawn),> 30 µM (inactive)
18,O=c1[nH]nc(SCCS(=O)(=O)c2ccc(F)cc2)n1-c1ccccc1C(F)(F)F,17.5 µM
19,O=C(NC1(C(F)(F)F)NC(=O)N(Cc2cccnc2)C1=O)c1ccccc1 (stereo not drawn),> 30 µM (inactive)
20,C[C@@H]1O[C@@H](Oc2c(-c3ccc(O)c(O)c3)oc3cc(O)cc(O)c3c2=O)[C@H](O)[C@H](O)[C@H]1O,29.8 µM
21,CCCC(=O)NNC(=O)c1c(O)c2ccccc2[nH]c1=O,> 30 µM (inactive)
22,COc1ccc(-n2c(C)c([N+](=O)[O-])c3ccc(O)c(CN(C)C)c32)cc1,5.94 µM
23,CCSc1nnc([C@@H](N)Cc2c[nH]c3ccccc23)o1,> 30 µM (inactive)
24,CC1(C)CC(=O)c2cnc(NCC3CCCO3)nc2C1 (stereo not drawn),> 30 µM (inactive)
25,COc1ccc(COC(=O)C2=C(C)NC(=O)NC2c2ccccc2F)cc1 (stereo not drawn),> 30 µM (inactive)
26,COc1ccc(O)c(-c2nc(N)nc(N)n2)c1,3.88 µM

row,SMILES,AC50
1,Brc1ccc(-c2nnc3ccc(Nc4ccccc4)nn23)cc1,> 30 µM (inactive)
2,CCSc1nc2sc3c(c2c(=O)n1CC)CC(C)(C)OC3,> 30 µM (inactive)
3,C/C(=N\NC(=O)c1nnn(-c2nonc2N)c1-c1cccs1)c1ccc(O)cc1,1.17 µM
4,N#CC1=C2SCN(c3ccccc3)CN2C(=O)CC1c1ccccc1Cl (stereo not drawn),> 30 µM (inactive)
5,C/C(=N\NC(=O)c1nnn(-c2nonc2N)c1CN(C)c1ccccc1)c1ccc(O)cc1,> 30 µM (inactive)
6,COc1cccc(NC(=O)c2nnn(Cc3ccc(Br)cc3F)c2N)c1,11.1 µM
7,Cn1c(=O)c2c(nc(NCC3CCCO3)n2Cc2ccccc2)n(C)c1=O (stereo not drawn),> 30 µM (inactive)
8,COc1ccc(/C=N/NC(=O)CSCc2ccc([N+](=O)[O-])cc2)cc1OC,> 30 µM (inactive)
9,O=c1[nH]c(=S)n(Cc2ccc(F)cc2)c(O)c1C=NCCCn1ccnc1,> 30 µM (inactive)
10,CC(OC(=O)c1cccc(N2C(=O)c3ccccc3C2=O)c1)C(=O)Nc1ccc(N(C)C)cc1 (stereo not drawn),> 30 µM (inactive)
11,COc1ccc(NC(=O)CSc2nc3[nH]ncc3c(=O)n2-c2ccccc2OC)cc1OC,> 30 µM (inactive)
12,COc1cc(/C=N/NC(=O)c2cnccn2)ccc1O,> 30 µM (inactive)
13,Cc1cccc(C)c1OCC(O)CNC(C)C (stereo not drawn),> 30 µM (inactive)
14,Cc1cc(C)c(S(=O)(=O)Nc2ccnc(-c3cccnc3)n2)c(C)c1,5.52 µM
15,S=C(Nc1ccc(Nc2ccccc2)cc1)Nc1ccccn1,> 30 µM (inactive)
16,C/C(=N\NC(=O)c1nnn(-c2nonc2N)c1-c1cccs1)c1cccnc1,1.33 µM
17,CN(C)C(=O)Oc1ccc([N+](=O)[O-])cc1,> 30 µM (inactive)
18,COc1cc(OC)cc(C(=O)O/N=C(\N)c2ccccn2)c1,> 30 µM (inactive)
19,O=C(CN1CCCCCC1)Nc1ccccc1Oc1ccccc1,> 30 µM (inactive)
20,Cc1nc2sc3c(c2c(=O)o1)CC(C)(C)OC3,> 30 µM (inactive)
21,O=C(NCCN1CCN(Cc2ccccc2Cl)CC1)Nc1ccccc1,> 30 µM (inactive)
22,COc1ccc2c3c(cccc13)OC2=O,> 30 µM (inactive)
23,FC(F)(F)COc1ccc(-c2nnc(SCc3c(Cl)cccc3Cl)o2)cn1,> 30 µM (inactive)
24,CCOC(=O)c1c(-c2cccc([N+](=O)[O-])c2)csc1N,6.81 µM
25,Cc1ccnc(NC(=O)Cn2c(=O)oc3cc(S(=O)(=O)N4CCCC4)ccc32)c1,26.9 µM
26,O=C(Nc1nc2c(s1)CCCC2)c1ccc(Br)s1,> 30 µM (inactive)

row,SMILES,AC50
1,CCc1nnc(NC(=O)CCc2nc(C3=CCN(C)CC3)no2)s1,> 30 µM (inactive)
2,Cn1c(SCC(=O)N/N=C/C=C/c2ccco2)nc2ccccc21,> 30 µM (inactive)
3,S=C(NCCc1ccccc1)Nc1cccc2cnccc12,> 30 µM (inactive)
4,Cc1cccc2cc(C#N)c(NCCNC(=S)NCCCN3CCOCC3)nc12,> 30 µM (inactive)
5,CCOC(=O)c1nnn(-c2nonc2-n2cccc2)c1C,> 30 µM (inactive)
6,O=Cc1cn(-c2ccccc2)nc1-c1cccnc1,> 30 µM (inactive)
7,COc1cccc(CCNC(=O)c2cc(COc3c(F)cccc3F)on2)c1,> 30 µM (inactive)
8,Clc1cccc(/C=N/Nc2ncnc3ccccc23)c1,> 30 µM (inactive)
9,O=C1c2c(O)ccc(O)c2C(=O)c2c(NCCNCCO)ccc(NCCNCCO)c21,28.3 µM
10,O=C(NCCCn1ccnc1)C(F)(F)C(F)(F)C(=O)NCCCn1ccnc1,> 30 µM (inactive)
11,CCn1c(SCC(=O)Nc2nc3ccc(OC)cc3s2)nnc1-c1ccoc1C,5.81 µM
12,O=C(O)Cn1cc(/C=N/NC(=O)c2cc3cc(Br)ccc3o2)c2ccccc21,6.05 µM
13,CC1=C(C(=O)OCc2ccccc2)C(c2cccc(Br)c2)NC(=O)N1 (stereo not drawn),28.7 µM
14,COc1ccc2[nH]c(-c3ccc(C)cc3)cc(=O)c2c1,> 30 µM (inactive)
15,CC1(C)Oc2ccc3ccc(=O)oc3c2-c2cnoc21,> 30 µM (inactive)
16,O=c1cc(-c2ccccc2)oc2ccccc12,> 30 µM (inactive)
17,Cc1cc2nc(-c3ccc(SCC(=O)NC(C)C)nc3)[nH]c2cc1C,> 30 µM (inactive)
18,COC(=O)C1=C(C(=O)OC)C(c2cc(Cl)ccc2O)c2sc(=O)[nH]c2S1 (stereo not drawn),28.4 µM
19,Cc1ccccc1CNC(=O)c1cc(COc2ccc(F)cc2F)on1,> 30 µM (inactive)
20,O=C1CCCN1CCCNc1ncccc1[N+](=O)[O-],> 30 µM (inactive)
21,COc1cc(/C=N/c2oc(C)c(C)c2C#N)cc(Br)c1O,> 30 µM (inactive)
22,CC(OC(=O)Cc1c[nH]c2ccccc12)C(=O)c1ccccc1 (stereo not drawn),> 30 µM (inactive)
23,Cc1nc2ncnn2c(C)c1Cc1c(Cl)cccc1Cl,> 30 µM (inactive)
24,O=C(Nc1ccccc1-c1nnc(SCc2ccc(Cl)cc2Cl)o1)c1ccccc1,> 30 µM (inactive)
25,Cc1ccc(N=c2oc3cc(O)ccc3cc2C(N)=O)cc1,2.17 µM
